Measurements published in US20110053897A1 (IRM LLC, priority 2009, published 2011).

These compounds were tested against T1, Syk kinase (Homo sapiens, UniProt P43405) (assay: Syk kinase inhibition, Caliper LabChip off-chip mobility-shift kinase assay). Settings: Caliper LabChip assay; read-out: Syk Enzyme IC50.
T1 construct: purchased
Type: biochemical
How it was run: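 Purified Syk pre-incubated 15 min with compound in 100 mM HEPES pH 7.5, 1 mM DTT, 10 mM MgCl2 or MnCl2, 0.002% Brij-35, then 1.5 μM fluorescein peptide and ATP at apparent KM added; 1–1.5 h at room temperature, 4% DMSO, EDTA stop. Microfluidic mobility-shift product/substrate conversion gave % inhibition; IC50 from 12-point series (10–0.00003 μM) by 4-parameter fit.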

IC50 [nM]	Compound
46	C=Cc1ccnc(Nc2cc3ccn(CCO)c(=O)c3c(NC(C)(C)C)n2)c1 [compound 858]
170	CC(C)(C)Nc1nc(Nc2cc(C3(C(N)=O)CC3)ccn2)cc2ccn(CCO)c(=O)c12 [compound 859]
28	CC(C)(C)Nc1nc(Nc2cc(C3(CO)CC3)ccn2)cc2ccn(CCO)c(=O)c12 [compound 860]
169	CC(C)(C)Nc1nc(Nc2cc(C(C)(C)C(=O)O)ccn2)cc2ccn(CCO)c(=O)c12 [compound 861]
579	CC(C)(C)Nc1nc(Nc2cc(C(C)(C)C(N)=O)ccn2)cc2ccn(CCO)c(=O)c12 [compound 862]
301	CC(C)(C)Nc1nc(Nc2cc(C(C)(C)CO)ccn2)cc2ccn(CCO)c(=O)c12 [compound 863]
2	CC(CO)c1ccnc(Nc2cc3ccn(CCO)c(=O)c3c(NC(C)(C)C)n2)c1 (stereo not drawn) [compound 864]
11	CC(C)(C)Nc1nc(Nc2cc(OCCO)ccn2)cc2ccn(CCO)c(=O)c12 [compound 866]
16	COC(C)c1ccnc(Nc2cc3ccn(CCO)c(=O)c3c(NC(C)(C)C)n2)c1 (stereo not drawn) [compound 868]
6	CC(C)(C)Nc1nc(Nc2cc(/C(N)=N/O)ccn2)cc2ccn(CCO)c(=O)c12 [compound 869]
76	CC(C)(C)Nc1nc(Nc2cc(C3(O)CCC3)ccn2)cc2ccn(CCO)c(=O)c12 [compound 870]
< 1.27	CC(C)(C)Nc1nc(Nc2cc(C(F)(F)CO)ccn2)cc2ccn(CCO)c(=O)c12 [compound 871]
< 1.17	CC(C)(C)Nc1nc(Nc2cc(C(F)CO)ccn2)cc2ccn(CCO)c(=O)c12 (stereo not drawn) [compound 872]
27	Cc1nc(-c2ccnc(Nc3cc4ccn(CCO)c(=O)c4c(NC(C)(C)C)n3)c2)no1 [compound 873]
33	CC(C)(C)Nc1nc(Nc2cc(C(C)(F)F)ccn2)cc2ccn(CCO)c(=O)c12 [compound 874]
6	CC(C)(C)Nc1nc(Nc2cc(CO)ccn2)cc2ccn(CC(=O)O)c(=O)c12 [compound 875]
15	[2H]C(C)(O)c1cc(Nc2cc3ccn(CCO)c(=O)c3c(NC(C)(C)C)n2)ncc1F (stereo not drawn) [compound 876]
94	CC(C)(C)Nc1nc(Nc2cc(C(C)(C)O)c(F)cn2)cc2ccn(CC(N)=O)c(=O)c12 [compound 877]
9	CC(C)(C)Nc1nc(Nc2cc(-c3ncccn3)ccn2)cc2ccn(CCO)c(=O)c12 [compound 878]
26	CC(C)(C)Nc1nc(Nc2cc(C(=O)NO)ccn2)cc2ccn(CCO)c(=O)c12 [compound 879]

IC50 [nM]	Compound
74	CC(C)(O)Cc1ccnc(Nc2cc3ccn(CCO)c(=O)c3c(NC(C)(C)C)n2)c1 [compound 880]
18	CC(C)(C)Nc1nc(Nc2cnccn2)cc2ccn(Cc3c[nH]nn3)c(=O)c12 [compound 881]
51	C#CCn1ccc2cc(Nc3cnccn3)nc(NC(C)(C)C)c2c1=O [compound 882]
27	CC(C)(C)Nc1nc(Nc2cnccn2)cc2ccn(Cc3nn[nH]n3)c(=O)c12 [compound 884]
78	COCCOc1cc(Nc2cc3ccn(CC(O)CO)c(=O)c3c(NC(C)(C)C)n2)ncn1 (stereo not drawn) [compound 885]
60	Cc1cc(Nc2cc3ccn(CCO)c(=O)c3c(NC(C)(C)C)n2)ncn1 [compound 886]
48	CC(C)(C)Nc1nc(Nc2cc(OCC3CCOC3)ncn2)cc2ccn(CC(O)CO)c(=O)c12 (stereo not drawn) [compound 887]
24	CC(C)(C)Nc1nc(Nc2cc(-n3cc(C(=O)O)cn3)ncn2)cc2ccn(CCO)c(=O)c12 [compound 888]
2180	CCOC(=O)c1cnn(-c2cc(Nc3cc4ccn(CCO)c(=O)c4c(NC(C)(C)C)n3)ncn2)c1 [compound 889]
21	CC(C)(C)Nc1nc(Nc2cc(Oc3cn[nH]c3)ncn2)cc2ccn(C[C@H](O)CO)c(=O)c12 [compound 890]
60	CC(C)(C)Nc1nc(Nc2cc(OCC3CCCO3)ncn2)cc2ccn(CC(O)CO)c(=O)c12 (stereo not drawn) [compound 891]
136	CC(C)Nc1nc(-c2cnc(N)nc2)cc2ccn(CCO)c(=O)c12 [compound 892]
43	CCC(C)(C)Nc1nc(-c2cnc(N)nc2)cc2cc[nH]c(=O)c12 [compound 893]
5	CC(C)(C)Nc1nc(-c2cnc(N)nc2)cc2cc[nH]c(=O)c12 [compound 894]
27	CCn1ccc2cc(Nc3cnccn3)nc(NC(C)(C)CO)c2c1=O [compound 895]
11	CC1(Nc2nc(Nc3cnccn3)cc3ccn(CCO)c(=O)c23)CCC1 [compound 896]
5	CCn1ccc2cc(Nc3cnccn3)nc(NC3(CO)CCC3)c2c1=O [compound 897]
20	CC(C)(C)CNc1nc(Nc2cnccn2)cc2ccn(CCO)c(=O)c12 [compound 898]
17	CC(C)(C)Nc1nc(-c2cnc(N)nc2)cc2ccn(CCO)c(=O)c12 [compound 899]
231	CC(C)(C)Nc1nc(Nc2cc(C(F)(F)F)ccn2)cc2ccn(CCO)c(=O)c12 [compound 901]

IC50 [nM]	Compound
57	CC(C)(CO)Nc1nc(-c2cnc(N)nc2)cc2ccn(CCO)c(=O)c12 [compound 902]
26	Nc1ncc(-c2cc3ccn(CCO)c(=O)c3c(NC3(CO)CCC3)n2)cn1 [compound 903]
4	CCn1ccc2cc(-c3cnc(N)nc3)nc(NC(C)(C)CO)c2c1=O [compound 904]
< 1.01	CCn1ccc2cc(-c3cnc(N)nc3)nc(NC3(CO)CCC3)c2c1=O [compound 905]
29	CCn1ccc2cc(-c3cnc(N)nc3)nc(NC3(C)CCC3)c2c1=O [compound 906]
< 0.847	CC1(Nc2nc(-c3cnc(N)nc3)cc3ccn(CCO)c(=O)c23)CCC1 [compound 907]
21	CCC(C)(C)Nc1nc(-c2cnc(N)nc2)cc2ccn(CCO)c(=O)c12 [compound 908]
546	Nc1ncc(-c2cc3ccn(CCO)c(=O)c3c(N3CCCC3)n2)cn1 [compound 909]
30	COCCn1ccc2cc(-c3cnc(N)nc3)nc(NC(C)(C)C)c2c1=O [compound 910]
94	CC(C)(C)CNc1nc(-c2cnc(N)nc2)cc2ccn(CCO)c(=O)c12 [compound 911]
2	Nc1ncc(-c2cc3ccn(CCO)c(=O)c3c(N[C@H]3CC[C@@H](CO)C3)n2)cn1 [compound 912]
5	CCn1ccc2cc(-c3cnc(N)nc3)nc(N[C@H]3CC[C@@H](CO)C3)c2c1=O [compound 913]
108	CCCn1ccc2cc(-c3cnc(N)nc3)nc(NC(C)(C)C)c2c1=O [compound 914]
26	CC(C)(C)Nc1nc(-c2cnc(N)nc2)cc2ccn(CCCO)c(=O)c12 [compound 915]
35	CC(C)(C)Nc1nc(-c2cnc(N)nc2)cc2ccn(CC3CCCO3)c(=O)c12 (stereo not drawn) [compound 918]
81	CC(C)(C)Nc1nc(-c2cnc(N)nc2)cc2ccn(CC3CCOCC3)c(=O)c12 [compound 919]
18	CC(C)(C)Nc1nc(-c2cnc(N)nc2)cc2ccn(CCCCO)c(=O)c12 [compound 920]
21	CC(C)(C)Nc1nc(-c2cnc(N)nc2)cc2ccn(C3COC3)c(=O)c12 [compound 921]
6	CC(C)(C)Nc1nc(-c2cnc(N)nc2)cc2ccn(C(CO)CO)c(=O)c12 [compound 922]
10	CC(C)(C)Nc1nc(-c2cnc(N)nc2)cc2ccn(CC3(CO)COC3)c(=O)c12 [compound 923]
